The text below walks through data of patent EP0378881B1, “Synthetic peptides and their use as universal carriers for the preparation of immunogenic conjugates suitable for the development of synthetic vaccines” ([…] S.p.A., priority 1989, dated 1993).

Entries after “also recorded” stand apart in the source; their conditions may differ. Like-named read-outs stand apart in the source and are kept apart here. Where only a bound is given, the exact number is not on record here.

For test [1], the system named is anti-CSP antibody response. The conditions noted are these: cited from earlier work.
Test [2] concerns Mononucleated cells of peripheral blood (PBMC). It counts as cell-based, human.
The subject of test [3] is T-cellular clones which are specific for TT=2. It counts as cell-based, human.
Test [4] has the same test system. It counts as cell-based, human. The source holds these as a separate data set.

H-(Asn-Ala-Asn-Pro)n: the anti-CSP antibody response entry in test [1] (CBA/ca mice) and in test [1] (DBA/2 mice) was “not able to induce” each time.
As for “Gln-Tyr-Ile-Lys-Ala-Asn-Ser-Lys-Phe-Ile-Gly-Ile-Thr-Glu (QYIKANSKFIGITE; printed: Gln-Tyr-Ile-Lys-Ala-Asn-Ser-Lys-Phe-Ile-Gly-Ile-Thr-Glu) [TT=2, synthetic peptide corresponding to TT segment 830-843]”, the “TT=2-specific cells as share of all the T cells which were specific for the Tetanus Toxoid (TT)” value in test [2] is at most 5%. In addition, in test [3], the “DR alleles in association with which the clone recognizes TT=2” value is “DR1, 2, 4w4 and 7; also recorded: DR5JVM and 6”; the “DR alleles that can be used as restriction molecules” value is “DR1-9, 4 x 4, 5JVM and DRw52b”; the “concentrations of the peptide at which all the clones react (dose-response plot)” value lay in the range of 0.1 to 2 µM; the “isotype of the II-class molecules recognized by the clones” value is “restricted DRs”. Besides, the “proliferation of the isolated clones in response to the antigen” value in test [3] is “proliferate responsively”. Further, in test [4], the “minimum antigenic sequence (epitope) recognized by the T-cells” value is recorded as “single 831-842 epitope”.
With “NANP₄₀: polymer (Asn-Ala-Asn-Pro)₄₀ obtained by polymerizing the activated monomer”, the “responder status of the mouse strain” value in test [1] (C57/8L/6 mice) is on record as “natural responders”; in test [1] (CB4/ca mice) it was “non-responders”; in test [1] (DBA/2 mice), “non-responders”.
